“Also recorded” adds a separate entry of the source.
Experiments:
LasR [1] = target: T1, LasR (Pseudomonas aeruginosa, UniProt P25084); assay: Quorum sensing reporter assay, pSB1075 (lasR-luxCDABE) expressed in E. coli; type: cell-based; set-up: expressed in transfected cells; host or cells: Escherichia coli carrying plasmid pSB1075; conditions: 37° C., 6 h, dose-response, vs solvent control
Protocol: FIG. 15. depicts activating activity of doscadenamide A (1a) in pSB1075, the lasR-luxCDABE reporter constructs expressed in E. coli. The bacterial cultures were treated with 1a in a dose-response manner and solvent control at 37° C. for 6 h before fluorescence was measured. Results are expressed as fold activation compared to solvent control. Data are presented as mean±SD, **P<0.01, ****P<0.0001, compared to solvent control using one-way ANOVA (n=3).
Lett. 1998, 163 (2), 185-192]. […] 2011, 7 (4), 1205-1216]. To validate the activating activity of 1a, its effect on wild-type P. aeruginosa was tested. […] For comparison, the other three diastereomers 1b, 1c and 1d were also included in the test. Such superagonists are expected to artificially regulate virulence factor production such as pyocyanin and activate QS at lower bacterial cell populations, thus to stimulate the host immune system to clear the infection when fewer bacterial cells are present [Galloway, W.; Hodgkinson, J.; Bovvden, S.; Welch, M.; Spring, D., Trends Microbiol. 2012, 20 (9), 449-458]. […]
Doscadenamide A (1a) in a dose-response manner and EtOH control were added to the corresponding wells in a 96-well plate and the solvent was allowed to evaporate. […] The plate was incubated at 37° C. for 6 h before the measurement of luminescence.

MDA-MB-231 cells = assay: MDA-MB-231 cell viability (MTT) with TRAIL, synergy evaluation; conditions: for cell viability after pretreatment and TRAIL co-treatment: 3 h pretreatment (5 μM, 2 μM); for cell viability after pretreatment and TRAIL co-treatment / synergistic effect with TRAIL / sensitization (Bliss independence): then TRAIL 20 ng/mL for 24 h; for synergistic effect with TRAIL / sensitization (Bliss independence): 3 h pretreatment; for cytotoxicity compared to doscadenamide A (1a): MDA-MB-231
Protocol: MDA-MB-231 cell viability after 3 h pretreatment with DMSO (solvent control), C12 as well as doscadenamide A (1a) and its structural analogs, B) 5 μM and C) 2 μM followed by combined TRAIL (20 ng/mL) treatment for 24 h. […] MDA-MB-231 cells were treated with doscadenamide A (1a) and its structural analogs for 3 h, followed by treatment with TRAIL (20 ng/mL) for 24 h, C12 was included as positive control. “A Bliss independence” is the difference between observed growth inhibition and Bliss expectation. Values greater than zero represent a synergistic response, represented as red in the figure. Bliss expectation is C=(A+B)−(A×B), where A and B are the growth inhibition fractions of two compounds at a given dose. Cell viability was quantified using MTT assay.
MDA-MB-231 cells were pretreated with C12, doscadenamides or solvent control for 3 h and then stimulated with TRAIL for 24 h (FIGS. 20B and 20C). We measured cell viability and calculated the A Bliss independence of each compound with TRAIL.

V. harveyi BB120 strain = assay: Bioluminescence modulation in V. harveyi; type: cell-based, Vibrio harveyi; conditions: for QS activation (bioluminescence, ΔLUM normalized by OD600): concentration range 10-200 PM
Protocol: FIGS. 19A-C depict QS activity in different systems. FIG. 19A is a graph showing activity of doscadenamide A (1a) in E. coli reporter gene assay using pSB1075 (wild-type) and point mutants (Y56F, W60F and D73N). […] C12 was used as the positive control. […] AI-1 is a reported quorum sensing autoinducer and was used as the positive control.
Bioluminescent V. harveyi BB120 strain (wild-ype) was cultivated in AB media overnight (15-16 h) at 30° C. (OD600 is about 2.0-2.5). The overnight cultivated strain […] was diluted to 10 mL by AB media (OD600<0.1). 100 μL the diluted BB120 strain was distributed to each well of 96-well white plate. The solution of each tested compound in DMSO (0.5 μL) at different concentration was added to BB120 cultures on plate. Triplicate was conducted for each compound and each concentration. After addition, bacterial cultures were incubated at 30° C. for 7 hours. Then the emitted luminescence and OD600 was measured by BioTek Synergy H1 plate reader. AI-1 and DMSO were used as positive control and negative control, respectively.

[2] = tested on: pTIM5319 (lacks the AHL-binding site LasR); assay: Related reporter pTIM5319 lacking a functional AHL-binding domain; type: cell-based; conditions: E. coli, 37° C., 6 h
Protocol: FIG. 16. depicts activating activity of doscadenamide A (1a) in related reporter pTIM5319, which lacks a functional AHL-binding domain. The bacterial cultures were treated with 1a in a dose-response manner and solvent control at 37° C. for 6 h before fluorescence was measured. Results are expressed as fold activation compared to solvent control. Data are presented as mean±SD, **P<0.01, ****P<0.0001, compared to solvent control using one-way ANOVA (n=3).
(§1) Lett. 1998, 163 (2), 185-192]. […] 2011, 7 (4), 1205-1216]. To validate the activating activity of 1a, its effect on wild-type P. aeruginosa was tested. […] For comparison, the other three diastereomers 1b, 1c and 1d were also included in the test. Such superagonists are expected to artificially regulate virulence factor production such as pyocyanin and activate QS at lower bacterial cell populations, thus to stimulate the host immune system to clear the infection when fewer bacterial cells are present [Galloway, W.; Hodgkinson, J.; Bovvden, S.; Welch, M.; Spring, D., Trends Microbiol. 2012, 20 (9), 449-458].
Doscadenamide A (1a) activates QS, which was established using the 3-oxo-C12-HSL-responsive reporter plasmid pSB1075, a plasmid encoding LasR (the C12 HSL receptor in Pseudomonas aeruginosa) and containing a light-producing luxCDABE cassette expressed in Escherichia coli. […]

PARP = assay: Western blot of PARP cleavage in MDA-MB-231 cells with TRAIL; type: cell-based; conditions: MDA-MB-231, TRAIL 20 ng/mL, compound 50 μM (FIG. 20E)
[3] = tested on: P. aeruginosa mutant PAO-JP1; assay: Pyocyanin quantification in P. aeruginosa strain PAO-JP1; type: cell-based, Pseudomonas aeruginosa; conditions: PAO-JP1, 6 h
Protocol: To follow up our previous study regarding the QS modulatory activity of doscadenamide A (1a) on wild-type P. aeruginosa and extend reporter gene assay studies, we examined the QS activation of different doscadenamides using a QS system deficient strain, PAO-JP1. PAO-JP1 is a P. aeruginosa mutant with a lasl deletion that cannot produce C12. […]
[…] The culture was then spun down for 10 min at the maximum speed, and the supernatant was collected and filtered using […] Eppendorf filters. 500 μL of the sterile supernatant were added to 500 μL CHCl3 in an Eppendorf tube. Tube shaking allowed for the extraction of pyocyanin in the CHCl3 layer. This layer was then added to 150 μL of 0.2 N HCl in another Eppendorf tube. After shaking, the aqueous layer and the organic layer were separated. 100 μL of the aqueous layer were transferred to a clear bottomed 384-well plate and the absorbance was measured at […] to quantify the pyocyanin production. Data was analyzed using GraphPad Prism 5 software.

wild-type P. aeruginosa = assay: Pyocyanin production in wild-type P. aeruginosa; type: cell-based, Pseudomonas aeruginosa; conditions: 10 PM, 6 h shaking at 37° C.
Protocol: Data are presented as mean±SD, **P<0.01, ****P<0.0001, compared to solvent control using one-way ANOVA (n=3).
as §1

cancer cells = conditions: cited from earlier work
LasR [4] = target: T1, LasR; conditions: cited from earlier work

T1 sequence (P25084 whole entry): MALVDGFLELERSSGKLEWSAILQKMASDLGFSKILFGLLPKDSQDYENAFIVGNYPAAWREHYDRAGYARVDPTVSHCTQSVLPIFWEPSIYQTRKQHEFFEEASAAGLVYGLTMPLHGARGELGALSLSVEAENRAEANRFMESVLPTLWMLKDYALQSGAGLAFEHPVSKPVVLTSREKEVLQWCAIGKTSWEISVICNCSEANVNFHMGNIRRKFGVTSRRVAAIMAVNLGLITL

Compound	synergistic effect with TRAIL / sensitization (Bliss independence) (MDA-MB-231 cells)	QS activation (bioluminescence, ΔLUM normalized by OD600) (V. harveyi BB120 strain)	QS activation (pyocyanin production normalized for cell number) ([3]; 100 μM) [fold]	cytotoxicity compared to doscadenamide A (1a) (MDA-MB-231 cells)	further results
C#CCCCC[C@@H](C)C(=O)NCCCC[C@H]1C(OC)=CC(=O)N1C(=O)[C@H](C)CCCCC#C [Compound 1a, (R)-N-(4-((S)-3-methoxy-1-((R)-2-methyloct-7-ynoyl)-5-oxo-2,5-dihydro-1H-pyrrol-2-yl)butyl)-2-methyloct-7-ynamide]	can effectively improve TRAIL-induced apoptosis	activating across the concentration range tested	3	–	activation of 3-oxo-C12-HSL-responsive reporter plasmid pSB1075 (QS activation) (LasR [1]): can activate; also recorded: activates QS; cell viability after pretreatment and TRAIL co-treatment (MDA-MB-231 cells): clear decrease in cell viability; activation of related reporter pTIM5319 [2]: abolished; PARP cleavage (Western blot) (PARP): evident presence of cleaved PARP; production of QS pigment pyocyanin / QS modulation (wild-type P. aeruginosa): elevated
C=CCCCC[C@@H](C)C(=O)NCCCC[C@H]1C(OC)=CC(=O)N1C(=O)[C@H](C)CCCCC=C [Compound 1f, Doscadenamide F]	–	–	–	improved cytoxicity	QS activating activity at <100 μM (V. harveyi BB120 strain): reduced
C#CCCCCCC(=O)NCCCC[C@H]1C(OC)=CC(=O)N1C(=O)[C@H](C)CCCCC#C [Compound 1j, Doscadenamide J]	–	–	–	–	QS activating activity at <100 μM (V. harveyi BB120 strain): reduced
CCCCCC[C@@H](C)C(=O)NCCCC[C@H]1C(OC)=CC(=O)N1C(=O)[C@H](C)CCCCCC [Compound 1k, Doscadenamide S4]	best agents to sensitize MDA-MB-231 cells	–	–	improved cytoxicity	–
C#CCCCC[C@@H](C)C(=O)NCCCC[C@@H]1NC(=O)C=C1OC [Compound 2a, Doscadenamide S8]	synergistic effect with TRAIL, except 2a	consistently inhibited QS signaling	–	–	cell viability after pretreatment and TRAIL co-treatment (MDA-MB-231 cells): no effect on cell viability; PARP cleavage (Western blot) (PARP): no effect; QS activation (pyocyanin production) without normalization for bacterial cell count [3]: did not show any level of activation; QS-activating effect (pyocyanin production normalized for cell number), in words ([3]; 100 μM): minimal QS-activating effect; also recorded: essentially inactive
C#CCCCC[C@@H](C)C(=O)N1C(=O)C=C(OC)[C@@H]1CCCCNC(=O)OC(C)(C)C [Compound 3a, Doscadenamide S10]	–	activating across the concentration range tested	3	–	–
C=CCCCC[C@@H](C)C(=O)N1C(=O)C=C(OC)[C@@H]1CCCCNC(=O)OC(C)(C)C [Compound 3b, Doscadenamide S11]	–	–	4	improved cytoxicity	–
CCCCCC[C@@H](C)C(=O)N1C(=O)C=C(OC)[C@@H]1CCCCNC(=O)OC(C)(C)C [Compound 3c, Doscadenamide S12]	best agents to sensitize MDA-MB-231 cells	only had a minor activating trend	5	improved cytoxicity	cell viability after pretreatment and TRAIL co-treatment (MDA-MB-231 cells): enhanced activity
CCCCCCCCCC(=O)CC(=O)N[C@H]1CCOC1=O [Compound C12, reference compound]	–	–	~3	–	synergistic effect on TRAIL-induced apoptosis reported in the literature (cancer cells): synergistic effect on TRAIL-induced apoptosis
CCCCCCC[C@@H]1C[C@H]1CCC(=O)O [lyngbyoic acid]	–	–	–	–	LasR / quorum sensing modulation reported in the literature (LasR [4]): strongly inhibit the activity of LasR
C=C(CCCCC)CCCC(=O)O [pitinoic acid A]	–	–	–	–	LasR / quorum sensing modulation reported in the literature (LasR [4]): P. aeruginosa quorum sensing inhibitor
TRAIL: tumor necrosis factor-related apoptosis-inducing ligand, a TNF family cytokine	–	–	–	–	fraction of cells undergoing apoptotic death (MDA-MB-231 cells; MDA-MB-231, TRAIL alone 20 ng/mL): approximately 20%; cell viability remaining (MDA-MB-231 cells; MDA-MB-231, TRAIL alone 500 ng/mL): 50%
